In brackets after ≈: the same amount, converted by molar mass. Activity calls are given as the source filed them. No cut-off for these calls is given here.

Data set [1] concerns Oryza sativa. Briefly: Toxicity in two-leaf stage Oryza sativa (rice) plants exposed to compound 3 days post transplantation assessed as phytotoxicity scores at 0.5 kg ai/ha measured 2 weeks post compound treatment. The format is organism-based. The following applies: in vivo, 336 h.
For data set [2], the system named is Oryza sativa. The data set can be described thus: Toxicity in direct seeded Oryza sativa (rice) plants assessed as phytotoxicity scores at 0.5 kg ai/ha measured 2 weeks post compound treatment. The following applies: in vivo, 336 h. It counts as organism-based.
Another data set has as its system Cyperus serotinus. The data set can be described thus: Herbicidal activity against Cyperus serotinus exposed to compound at 1.5 to 2 leaf stage assessed as herbicidal rate scores at 0.5 kg ai/ha measured 2 weeks post compound treatment by pot test. It counts as functional.
Data set [3] deals with Schoenoplectiella juncoides. The data set can be described thus: Herbicidal activity against Schoenoplectiella juncoides exposed to compound at 1.5 to two-leaf stage assessed as herbicidal rate scores at 0.5 kg ai/ha measured 2 weeks post compound treatment by pot test. The format is functional.
The subject of another data set is Rotala indica. Briefly: Herbicidal activity against Rotala indica exposed to compound at 1.5 to 2 leaf stage assessed as herbicidal rate scores at 0.5 kg ai/ha measured 2 weeks post compound treatment by pot test. It counts as functional.
Data set [4] deals with Echinochloa oryzicola. The data set can be described thus: Herbicidal activity against Echinochloa oryzicola exposed to compound at 1.5 to two-leaf stage assessed as herbicidal rate scores at 0.5 kg ai/ha measured 2 weeks post compound treatment by pot test. It counts as functional.
For data set [5], the system named is Echinochloa oryzicola. Briefly: Herbicidal activity against germinated Echinochloa oryzicola assessed as inhibition of above-ground shoot length growth after 7 days post compound treatment by petri dish test. It counts as functional. To be noted: for EC50: 168 h, read-out: ED50 (the source's name).

Consider `Cc1cc(S(=O)(=O)N(C)C[C@]2(c3cccc(Cl)n3)CO2)ccc1Cl`, for which the Activity was determined as 1 in the data set with Oryza sativa [1]; 10 in the data set on Oryza sativa [2]; 10 with Cyperus serotinus; 7 in data set [3]; 10 in the data set on Rotala indica; 10 with Echinochloa oryzicola [4]. For the same molecule, the EC50 with Echinochloa oryzicola [5] stood at 0.035 µg/mL (≈ 0.0904 µM).

`CN(C[C@@]1(c2cccc(Cl)n2)CO1)S(=O)(=O)c1ccc2c(c1)CCCC2`: the Activity (in the data set on Oryza sativa [1]; in the data set on Oryza sativa [2]; with Cyperus serotinus; in data set [3]; with Rotala indica; in the data set on Echinochloa oryzicola [4]) was 0 throughout. In addition, the ED50 result in the data set on Echinochloa oryzicola [5] is “inactive”.

Turning to `CN(C[C@]1(c2cccc(Cl)n2)CO1)S(=O)(=O)c1ccc2c(c1)CCCC2`, the Activity came to 0 in the data set with Oryza sativa [1]; 1 in the data set on Oryza sativa [2]; 9 with Cyperus serotinus; 3 in data set [3]; 10 in the data set with Rotala indica; 9 with Echinochloa oryzicola [4]. Further, the EC50 with Echinochloa oryzicola [5] was 0.05 µg/mL (≈ 0.127 µM).

Take `Cc1cc(S(=O)(=O)N(C)CC2(c3cccc(Cl)n3)CO2)ccc1Cl` (racemic): the Activity in the data set with Oryza sativa [1] is 0; with Oryza sativa [2], 10; in the data set on Cyperus serotinus, 9; in data set [3], 4; in the data set on Rotala indica, 9; with Echinochloa oryzicola [4] it was 10. Moreover, the EC50 with Echinochloa oryzicola [5] worked out at 0.07 µg/mL (≈ 0.181 µM).

With `CN(CC1(c2cccc(Cl)n2)CO1)S(=O)(=O)c1ccc2c(c1)CCCC2` (racemic), the Activity came to 0 with Oryza sativa [1]; 0 in the data set on Oryza sativa [2]; 8 in the data set with Cyperus serotinus; 2 in data set [3]; 10 in the data set on Rotala indica; 8 in the data set with Echinochloa oryzicola [4]. Further, in the data set on Echinochloa oryzicola [5], the EC50 worked out at 0.11 µg/mL (≈ 0.28 µM).

Consider `Cc1cc(S(=O)(=O)N(C)C[C@@]2(c3cccc(Cl)n3)CO2)ccc1Cl`, for which the Activity is given as 0 in the data set on Oryza sativa [1]; 0 in the data set with Oryza sativa [2]; 2 in the data set with Cyperus serotinus; 0 in data set [3]; 2 in the data set on Rotala indica; 1 with Echinochloa oryzicola [4]. In addition, the ED50 result in the data set with Echinochloa oryzicola [5] is “inactive”.

Values taken from ChEMBL document CHEMBL3044551, “Synthesis of optically active N-(2-pyridyloxiran-2-ylmethyl) benzenesulfonamide derivatives and their herbicidal activity” (Biosci Biotechnol Biochem, 2001).
